Results published in PMC4491177, “Co-translational capturing of nascent ribosomal proteins by their dedicated chaperones” (Nature Communications, 2015).
Ends that are not written are not given here.

Experiments:
NTAP-Rrb1 [1] = test: in vivo co-purification (TAP) with NTAP-Rrb1; format: binding, S. cerevisiae; conditions: CUP1 promoter, 30 min with 500 µM copper sulfate
Procedure: (§1) Cells expressing Sqt1-TAP and NTAP-Rrb1 were grown at 30 °C in 4 l yeast extract peptone dextrose (YPD) medium to an optical density (OD600) of 2. Cell extracts were obtained by glass bead lysis with a Pulverisette (Fritsch). TAPs were performed in a buffer containing 50 mM Tris-HCl (pH 7.5), 100 mM NaCl, 1.5 mM MgCl2, 5% glycerol and 0.1% NP-40 as described. The EGTA eluates were precipitated by the addition of TCA to a final concentration of 10% and, after an acetone wash, dissolved in 80 μl of 3 × SDS sample buffer. […]
(§2) lanes 3 and 4) from cells where expression of the yEGFP control protein (lanes 1 and 3) or the Rpl10(1-20)-yEGFP (lane 2) and Rpl3(1-23)-yEGFP (lane 4) fusion proteins has been induced from the CUP1 promoter for 30 min with 500 µM copper sulfate. Final EGTA eluates were analyzed by SDS-PAGE and Coomassie staining (top) or by Western blotting using anti-CBP, anti-Flag, anti-GFP, anti-Rpl10, and anti-Rpl3 antibodies (bottom). Total cell extracts (input) were analyzed by Western blotting using anti-proteinA, anti-GFP, and anti-Adh1 (loading control) antibodies. […]
(§3) Final EGTA eluates were analyzed by SDS-PAGE and Coomassie staining (top) or by Western blotting using anti-CBP, anti-Flag, anti-HA, anti-Rpl10, and anti-Rpl3 antibodies (bottom). […] Total cell extracts (input) were analyzed by Western blotting using anti-proteinA, anti-HA, and anti-Adh1 (loading control) antibodies. […]

yeast strain YDK11-5A = test: growth assay, yEGFP fusion expression and chaperone overexpression; format: cell-based, S. cerevisiae; conditions: chaperones from GAL1-10 promoter, SGal-Leu-Trp plates, 30 °C
Description: Supplementary Figure 3 The N-terminal residues of Rpl10 and Rpl3 are sufficient and required for the interaction with Sqt1 and Rrb1, respectively. (a) The negative growth effect associated with L10-N- and L3-N-yEGFP expression is suppressed by overexpression of Sqt1 and Rrb1, respectively. The wild-type strain YDK11-5A was co-transformed with plasmids expressing yEGFP, Rpl10(1-20)-yEGFP or Rpl3(1-23)-yEGFP from the cognate RPL10 or RPL3 promoter, respectively, and empty vector or plasmids expressing Sqt1 or Rrb1 from the inducible GAL1-10 promoter. Transformants were first selected and then restreaked on SGal-Leu-Trp plates. Cells were spotted in 10-fold serial dilution steps onto SC-Leu-Trp (Glucose, Glu) and SGal-Leu-Trp (Galactose, Gal) plates, which were incubated for 3 d or 4 d at 30 °C, respectively. (b) The N-terminal residues of Rpl10 and Rpl3 are sufficient to mediate interaction with their chaperones in vivo. Tandem-affinity purification of C-terminally TAP-tagged Sqt1 (Sqt1-TAP, lanes 1 and 2) and N-terminally TAP-tagged Rrb1 (NTAP-Rrb1, […]
(1 picture or pasted object on this page, not shown here)

NTAP-Rrb1 [2] = test: co-translational capturing of yEGFP fusion by qRT-PCR, NTAP-Rrb1 purification; format: binding, S. cerevisiae; conditions: vs yEGFP control mRNA; expressed 10 min from copper-inducible promoter, then cycloheximide
Procedure: (§4) Cells expressing Sqt1-TAP, NTAP-Rrb1, Syo1-FTpA and Yar1-TAP were grown at 30 °C in 400 ml YPD medium to an optical density (OD600) of 0.8, then cycloheximide was added to a final concentration of 0.2 mg ml^−1 and the flasks were kept, with intermittent vigorous shaking, on ice for 5 min. Cells were harvested by centrifugation for 5 min at 4 °C at 4,000 r.p.m., washed once with 20 ml of ice-cold lysis buffer (100 mM NaCl, 50 mM Tris-HCl (pH 7.5), 1.5 mM MgCl2, 0.1% NP-40 and 5% glycerol) containing 1 mM PMSF and 0.2 mg ml^−1 cycloheximide (lysis buffer-PC) and resuspended in 2 ml of lysis buffer-PC. Equal volumes of the resuspended cells were transferred into two 2.2 ml Eppendorf tubes, briefly centrifuged and resuspended in 600 μl of ice-cold lysis buffer-PC. To prevent RNA degradation, 4 μl of RiboLock (40 U μl^−1; Fermentas) was added. Then glass beads, corresponding to 1/3 of the lysis buffer volume, were added and the tubes were vigorously vortexed for 10 × 30 s with 30-s intervals on ice. Cell extracts were transferred to a new tube and, to maximize the yield, 400 μl of ice-cold lysis buffer-PC was used to rinse the glass beads. […]
(§5) For RNA isolation from the TEV eluate aliquot (∼450 μl), the TEV eluate was adjusted to 10 mM EDTA (pH 8.0) and 0.5% SDS. […] RNA concentrations (A260) were determined using a NanoDrop 1000 spectrophotometer (Thermo Scientific). […]

Sqt1-TAP [3] = test: co-translational capturing of yEGFP fusion by qRT-PCR, Sqt1-TAP purification; format: binding, S. cerevisiae; conditions: vs yEGFP control mRNA; expressed 10 min from copper-inducible promoter, then cycloheximide
Procedure: Figure 7 Chaperones are recruited to nascent ribosomal proteins. (a) The chaperone proteins were affinity purified (IgG-Sepharose pull-down) from extracts of cycloheximide-treated cells and the associated RNA was isolated from the TEV eluates. Each of the four chaperone purifications (NTAP-Rrb1, Syo1-FTpA, Sqt1-TAP, and Yar1-TAP) was assessed for their content of the four ribosomal protein (RP) mRNAs (RPL3, RPL5, RPL10 and RPS3) by real-time qRT–PCR. The data from one representative experiment are expressed as the relative enrichment of the specifically co-purified RP mRNA in each of the four chaperone purifications (see Methods section for details). For each cDNA, real-time qPCRs were performed in triplicates. A highly reproducible data set was obtained in an independent series of chaperone purifications. (b) The N-terminal residues of Rpl10 are sufficient to target Sqt1 to the nascent Rpl10(1–20)-yEGFP fusion protein. […] The Sqt1-TAP purifications were assessed for their content of the RPL3, RPL10 and yEGFP (GFP) mRNAs by real-time qRT–PCR. The data from one representative experiment are expressed as the fold enrichment relative to the RPL3 mRNA. […]

Sqt1-TAP [4] = test: in vivo co-purification (TAP) with Sqt1-TAP; format: binding, S. cerevisiae; conditions: CUP1 promoter, 30 min with 500 µM copper sulfate
Procedure: as §1, §2, §3

RPS3 mRNA = test: co-translational capturing by qRT-PCR, RPS3 mRNA; format: binding, S. cerevisiae; conditions: Yar1-TAP purification, cycloheximide-treated cells; one representative experiment, qPCR triplicates
Procedure: as §4, §5

RPL5 mRNA = test: co-translational capturing by qRT-PCR, RPL5 mRNA; format: binding, S. cerevisiae; conditions: Syo1-FTpA purification, cycloheximide-treated cells; one representative experiment, qPCR triplicates
Procedure: as §4, §5

L3-N (amino acids 1–23) yEGFP (MSHRKYEAPRHGHLGFLPRKRAA; also: fused to yEGFP, end not given here; UniProt P14126 1-23, looked up, fragment)
in vivo co-purification with the NTAP-Rrb1 bait (NTAP-Rrb1 [1]): specifically co-purified in vivo
growth defect associated with expression, upon overexpression of Sqt1 or Rrb1, respectively (yeast strain YDK11-5A): efficiently suppressed
enrichment of fusion mRNA in NTAP-Rrb1 purification (NTAP-Rrb1 [2]): clearly enriched compared with the yEGFP control mRNA

L10-N (amino acids 1–20) yEGFP (MARRPARCYRYQKNKPYPKS; also: fused to yEGFP; UniProt P41805 1-20, looked up, fragment)
enrichment of fusion mRNA in Sqt1-TAP purification (Sqt1-TAP [3]): clearly enriched compared with the yEGFP control mRNA
in vivo co-purification with the Sqt1-TAP bait (Sqt1-TAP [4]): specifically co-purified in vivo
growth defect associated with expression, upon overexpression of Sqt1 or Rrb1, respectively (yeast strain YDK11-5A): efficiently suppressed

B1: Yar1: ankyrin-repeat protein, chaperone of Rps3 (protein)
chain: MGLHSEPLDQEDQDTIILDARAGDLDSLKDIFTTLVSPELLSTCKESESDSTALHMAAANGHIETVRYILETVSRANSAEDLKAFVNEVNKTGNTALHWASLNGKLDVVKLLCDEYEADPFIRNKFGHDAIFEAENSGKEEVETYFLKKYDVEPEDDEEDTQTEGKNSVQITKGTEIEQVTKEATEALREETEKLNINKD
modifications: left off: TAP, end not stated, kept
notes: ankyrin-repeat protein, chaperone of Rps3
enrichment of the specific ribosomal protein mRNA (RPS3) (RPS3 mRNA): roughly 100 -fold

B2: Syo1: transport adaptor, chaperone of Rpl5 (and Rpl11) (protein)
chain: MGRSKKRSRASSSRLNPLRKAGSNDNNKDTNVVNKKLQPLLQNLSSVVPNDRSIALSSISVLCEDAHMRQLLLKEKLVPIILNKLLNDSNSDIVVESFGLLRNLSLEEGYDVSIYLWRSDIWTSITSNFGRIVESLSALQAAEQQPQLKPAGKSKIESKRLLFDFADNLLSLVVALSNGSDDILNEILTESKINEIFQVISQLLKYGVEKLPINLFNTTLDLIYDLSSESFEFIDHVSNNELLSQFLNGLSPALHPQANELTKVLIEGIHCQFLDMKITYDQCNKMIHSVCHSINNIDPVQLVNDINNPVEIGPATSKDESSKVITKIKDYNAKRNESMIKLQSIEIAIDLITAIIEIVASKYESPESQEVAIPEELINTLTNFLPHVFMILKDTFTSRILIGWNNLIWLFVSLSLTELSGELLTTLWSYVTQLDSQDDLSIKIGRMGCIWALLKLIFPDGAFESENRALINVQMLNNSGFARGIIEEFQNNNDLELQQKCINVLSTYAMIQGQIDANKEIGQFFIQTLTQLNVRPEILIEMTNSLFQIYGDASYDYNEPIFVRGGFLSILKDQVVPNLRQQFKMVDKNKNPELKERCHDCFTTLDSFIHYKMNENSTNQ
modifications: left off: FTpA, end not stated, kept
enrichment of the specific ribosomal protein mRNA (RPL5) (RPL5 mRNA): roughly 100 -fold
